Earlier results in patent US20080305186A1, “Method and Composition for the Treatment of Cardiac Hypertrophy” (BOARD OF REGENTS, THE UNIVERSITY OF TEXAS SYSTEM, priority 2007, published 2008).

Columns and labels:
[1] = test system: isoproterenol-, angiotensin II- and aortic banding induced cardiac hypertrophy; conditions: cited from earlier work
[2] = test system: Histone Deacetylase; conditions: cited from earlier work

In the case of `CCCC(CCC)C(=O)O` [valproic acid], the “attenuation of cardiac hypertrophy” value [1] is listed as “attenuate” and the “inhibition of Histone Deacetylase (HDAC)” value [2] is listed as “inhibit HDAC”.
